Among the data in patent US8133998B2, “Bicyclic pyrimidine derivatives as calcium channel blockers” (Zalicus Pharmaceuticals, Ltd., priority 2007, dated 2012) are Kd values, retold here.

What all share (test): T-type calcium channel block, whole cell patch clamp in HEK cells
What all share (assay type): cell-based
On the technique in general: The patch-clamp technique gives a direct electrical read-out from membranes.

Experiment [1] has as its target T1, human α1G T-type channels (Homo sapiens, UniProt O43497).
T1 construct: expressed in transfected cells; host or cells: HEK 293
As to conditions: HEK cells stably expressing human α1G; measured at 1 μM drug; mainly non-inactivated protocol. How it is done: (§1) T-type calcium channel blocking activity was assayed in human embryonic kidney cells, HEK 293, stably transfected with the T-type calcium channel subunits. Briefly, cells were cultured in Dulbecco's modified eagle medium (DMEM) supplemented with 10% fetal bovine serum, 200 U/ml penicillin and 0.2 mg/ml streptomycin at 37° C. with 5% CO2. At 85% confluency cells were split with 0.25% trypsin/1 mM EDTA and plated at 10% confluency on glass coverslips. At 12 hours the medium was replaced and the cells stably transfected using a standard calcium phosphate protocol and the appropriate calcium channel cDNA's. Fresh DMEM was supplied and the cells transferred to 28° C./5% CO2. Cells were incubated for 1 to 2 days prior to whole cell recording.
(§2) Standard patch-clamp techniques were employed to identify blockers of T-type currents. Briefly, previously described HEK cell lines stably expressing human α1G, α1H and α1I T-type channels were used for all the recordings (passage #: 4-20, 37° C., 5% CO2). Whole cell patch clamp experiments were performed using an Axopatch 200B amplifier (Axon Instruments, Burlingame, Calif.) linked to a personal computer equipped with pCLAMP software. Data were analyzed using Clampfit (Axon Instruments) and SigmaPlot 4.0 (Jandel Scientific). To obtain T-type currents, plastic dishes containing semi-confluent cells were positioned on the stage of a ZEISS AXIOVERT S100 microscope after replacing the culture medium with external solution (see below). Whole-cell patches were obtained using pipettes (borosilicate glass with filament, O.D.: 1.5 mm, I.D.: 0.86 mm, 10 cm length), fabricated on a SUTTER P-97 puller with resistance values of ˜5 MΩ (see below for internal solution).
(§3) In the non-inactivating protocol, the holding potential is set at −110 mV and with a pre-pulse at −100 mV for 1 second prior to the test pulse at −40 mV for 50 ms. In the inactivation protocol, the pre-pulse is at approximately −85 mV for 1 second, which inactivates about 15% of the T-type channels.
(§4) Test compounds were dissolved in external solution, 0.1-0.01% DMSO. After ˜10 min rest, they were applied by gravity close to the cell using a WPI microfil tubing. The “non-inactivated” pre-pulse was used to examine the resting block of a compound. The “inactivated” protocol was employed to study voltage-dependent block. However, the initial data shown below were mainly obtained using the non-inactivated protocol only. Kd values are shown for various compounds of the invention in Table 4 measured at 1 μM for the drug of interest except for compound 18 which was measured at 200 nM.

Experiment [2] concerns the target T2, human α1H T-type channels (Homo sapiens, UniProt O95180).
T2 construct: expressed in transfected cells; host or cells: HEK 293
As to conditions: HEK cells stably expressing human α1H; measured at 1 μM drug; mainly non-inactivated protocol. How it is done: as §1, §2, §3, §4

Experiment [3] deals with T3, human α1I T-type channels (Homo sapiens, UniProt Q9P0X4).
T3 construct: expressed in transfected cells; host or cells: HEK 293
Conditions: HEK cells stably expressing human α1I; measured at 1 μM drug; mainly non-inactivated protocol. How it is done: as §1, §2, §3, §4

In general, Kd refers to a measure of binding affinity in units of concentration.

T1 sequence (O43497 whole entry): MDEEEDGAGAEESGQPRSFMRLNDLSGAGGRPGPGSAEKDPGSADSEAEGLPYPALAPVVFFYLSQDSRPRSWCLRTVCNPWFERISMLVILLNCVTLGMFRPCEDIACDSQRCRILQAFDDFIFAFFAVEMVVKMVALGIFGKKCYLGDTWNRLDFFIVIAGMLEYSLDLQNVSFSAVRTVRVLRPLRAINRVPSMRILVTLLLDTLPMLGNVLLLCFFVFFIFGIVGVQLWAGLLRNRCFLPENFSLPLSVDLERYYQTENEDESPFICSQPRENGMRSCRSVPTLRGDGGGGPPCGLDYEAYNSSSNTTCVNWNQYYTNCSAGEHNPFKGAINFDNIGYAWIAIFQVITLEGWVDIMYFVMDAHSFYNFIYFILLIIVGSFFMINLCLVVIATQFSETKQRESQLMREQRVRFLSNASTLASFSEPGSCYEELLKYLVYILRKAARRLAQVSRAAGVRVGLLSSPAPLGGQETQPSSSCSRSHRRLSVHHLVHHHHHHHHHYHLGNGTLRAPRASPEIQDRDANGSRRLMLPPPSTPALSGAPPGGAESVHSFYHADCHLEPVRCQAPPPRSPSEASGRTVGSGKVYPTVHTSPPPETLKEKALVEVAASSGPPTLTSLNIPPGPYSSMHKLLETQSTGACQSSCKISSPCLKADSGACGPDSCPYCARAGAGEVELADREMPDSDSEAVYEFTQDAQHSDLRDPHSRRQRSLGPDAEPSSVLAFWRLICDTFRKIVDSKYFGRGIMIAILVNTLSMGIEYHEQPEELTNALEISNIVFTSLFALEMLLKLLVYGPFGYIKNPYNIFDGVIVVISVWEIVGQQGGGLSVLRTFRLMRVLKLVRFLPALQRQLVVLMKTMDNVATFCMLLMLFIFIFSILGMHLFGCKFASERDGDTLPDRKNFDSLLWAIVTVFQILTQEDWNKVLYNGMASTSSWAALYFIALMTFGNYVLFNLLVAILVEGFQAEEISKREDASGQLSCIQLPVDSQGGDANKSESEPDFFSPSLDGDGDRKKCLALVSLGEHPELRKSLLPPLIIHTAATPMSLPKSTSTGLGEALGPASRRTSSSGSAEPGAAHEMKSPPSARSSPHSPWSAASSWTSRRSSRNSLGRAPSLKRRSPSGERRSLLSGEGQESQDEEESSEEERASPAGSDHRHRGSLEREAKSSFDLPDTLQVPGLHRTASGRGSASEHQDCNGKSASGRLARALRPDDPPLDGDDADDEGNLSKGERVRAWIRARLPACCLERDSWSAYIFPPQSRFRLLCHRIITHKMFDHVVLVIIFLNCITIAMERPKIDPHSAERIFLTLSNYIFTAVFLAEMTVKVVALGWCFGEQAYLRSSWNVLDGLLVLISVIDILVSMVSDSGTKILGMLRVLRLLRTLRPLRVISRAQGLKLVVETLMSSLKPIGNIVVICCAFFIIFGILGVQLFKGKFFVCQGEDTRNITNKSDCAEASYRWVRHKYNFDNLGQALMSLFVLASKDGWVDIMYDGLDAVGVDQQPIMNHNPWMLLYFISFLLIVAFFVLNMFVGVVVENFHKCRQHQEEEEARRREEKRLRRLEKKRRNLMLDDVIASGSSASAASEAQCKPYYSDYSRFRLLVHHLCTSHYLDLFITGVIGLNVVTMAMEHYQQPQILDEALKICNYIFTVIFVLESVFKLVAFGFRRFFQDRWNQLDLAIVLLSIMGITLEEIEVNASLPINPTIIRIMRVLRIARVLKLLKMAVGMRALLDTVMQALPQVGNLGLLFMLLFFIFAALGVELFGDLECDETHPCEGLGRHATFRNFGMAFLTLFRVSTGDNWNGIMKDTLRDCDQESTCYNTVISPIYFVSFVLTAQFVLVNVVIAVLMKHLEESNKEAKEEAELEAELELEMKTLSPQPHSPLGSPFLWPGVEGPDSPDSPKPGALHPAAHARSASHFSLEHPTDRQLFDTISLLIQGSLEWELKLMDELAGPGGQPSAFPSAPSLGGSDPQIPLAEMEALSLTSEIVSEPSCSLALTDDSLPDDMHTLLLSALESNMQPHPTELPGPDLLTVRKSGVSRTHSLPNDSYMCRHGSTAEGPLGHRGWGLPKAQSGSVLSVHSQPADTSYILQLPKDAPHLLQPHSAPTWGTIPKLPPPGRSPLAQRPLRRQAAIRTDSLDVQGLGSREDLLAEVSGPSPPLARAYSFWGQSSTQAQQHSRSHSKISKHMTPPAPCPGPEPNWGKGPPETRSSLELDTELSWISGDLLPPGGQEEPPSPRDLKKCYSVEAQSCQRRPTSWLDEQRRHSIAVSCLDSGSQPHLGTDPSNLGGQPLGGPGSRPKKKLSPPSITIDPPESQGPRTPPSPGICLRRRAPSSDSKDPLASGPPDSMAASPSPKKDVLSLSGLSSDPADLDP
T2 sequence (O95180 whole entry): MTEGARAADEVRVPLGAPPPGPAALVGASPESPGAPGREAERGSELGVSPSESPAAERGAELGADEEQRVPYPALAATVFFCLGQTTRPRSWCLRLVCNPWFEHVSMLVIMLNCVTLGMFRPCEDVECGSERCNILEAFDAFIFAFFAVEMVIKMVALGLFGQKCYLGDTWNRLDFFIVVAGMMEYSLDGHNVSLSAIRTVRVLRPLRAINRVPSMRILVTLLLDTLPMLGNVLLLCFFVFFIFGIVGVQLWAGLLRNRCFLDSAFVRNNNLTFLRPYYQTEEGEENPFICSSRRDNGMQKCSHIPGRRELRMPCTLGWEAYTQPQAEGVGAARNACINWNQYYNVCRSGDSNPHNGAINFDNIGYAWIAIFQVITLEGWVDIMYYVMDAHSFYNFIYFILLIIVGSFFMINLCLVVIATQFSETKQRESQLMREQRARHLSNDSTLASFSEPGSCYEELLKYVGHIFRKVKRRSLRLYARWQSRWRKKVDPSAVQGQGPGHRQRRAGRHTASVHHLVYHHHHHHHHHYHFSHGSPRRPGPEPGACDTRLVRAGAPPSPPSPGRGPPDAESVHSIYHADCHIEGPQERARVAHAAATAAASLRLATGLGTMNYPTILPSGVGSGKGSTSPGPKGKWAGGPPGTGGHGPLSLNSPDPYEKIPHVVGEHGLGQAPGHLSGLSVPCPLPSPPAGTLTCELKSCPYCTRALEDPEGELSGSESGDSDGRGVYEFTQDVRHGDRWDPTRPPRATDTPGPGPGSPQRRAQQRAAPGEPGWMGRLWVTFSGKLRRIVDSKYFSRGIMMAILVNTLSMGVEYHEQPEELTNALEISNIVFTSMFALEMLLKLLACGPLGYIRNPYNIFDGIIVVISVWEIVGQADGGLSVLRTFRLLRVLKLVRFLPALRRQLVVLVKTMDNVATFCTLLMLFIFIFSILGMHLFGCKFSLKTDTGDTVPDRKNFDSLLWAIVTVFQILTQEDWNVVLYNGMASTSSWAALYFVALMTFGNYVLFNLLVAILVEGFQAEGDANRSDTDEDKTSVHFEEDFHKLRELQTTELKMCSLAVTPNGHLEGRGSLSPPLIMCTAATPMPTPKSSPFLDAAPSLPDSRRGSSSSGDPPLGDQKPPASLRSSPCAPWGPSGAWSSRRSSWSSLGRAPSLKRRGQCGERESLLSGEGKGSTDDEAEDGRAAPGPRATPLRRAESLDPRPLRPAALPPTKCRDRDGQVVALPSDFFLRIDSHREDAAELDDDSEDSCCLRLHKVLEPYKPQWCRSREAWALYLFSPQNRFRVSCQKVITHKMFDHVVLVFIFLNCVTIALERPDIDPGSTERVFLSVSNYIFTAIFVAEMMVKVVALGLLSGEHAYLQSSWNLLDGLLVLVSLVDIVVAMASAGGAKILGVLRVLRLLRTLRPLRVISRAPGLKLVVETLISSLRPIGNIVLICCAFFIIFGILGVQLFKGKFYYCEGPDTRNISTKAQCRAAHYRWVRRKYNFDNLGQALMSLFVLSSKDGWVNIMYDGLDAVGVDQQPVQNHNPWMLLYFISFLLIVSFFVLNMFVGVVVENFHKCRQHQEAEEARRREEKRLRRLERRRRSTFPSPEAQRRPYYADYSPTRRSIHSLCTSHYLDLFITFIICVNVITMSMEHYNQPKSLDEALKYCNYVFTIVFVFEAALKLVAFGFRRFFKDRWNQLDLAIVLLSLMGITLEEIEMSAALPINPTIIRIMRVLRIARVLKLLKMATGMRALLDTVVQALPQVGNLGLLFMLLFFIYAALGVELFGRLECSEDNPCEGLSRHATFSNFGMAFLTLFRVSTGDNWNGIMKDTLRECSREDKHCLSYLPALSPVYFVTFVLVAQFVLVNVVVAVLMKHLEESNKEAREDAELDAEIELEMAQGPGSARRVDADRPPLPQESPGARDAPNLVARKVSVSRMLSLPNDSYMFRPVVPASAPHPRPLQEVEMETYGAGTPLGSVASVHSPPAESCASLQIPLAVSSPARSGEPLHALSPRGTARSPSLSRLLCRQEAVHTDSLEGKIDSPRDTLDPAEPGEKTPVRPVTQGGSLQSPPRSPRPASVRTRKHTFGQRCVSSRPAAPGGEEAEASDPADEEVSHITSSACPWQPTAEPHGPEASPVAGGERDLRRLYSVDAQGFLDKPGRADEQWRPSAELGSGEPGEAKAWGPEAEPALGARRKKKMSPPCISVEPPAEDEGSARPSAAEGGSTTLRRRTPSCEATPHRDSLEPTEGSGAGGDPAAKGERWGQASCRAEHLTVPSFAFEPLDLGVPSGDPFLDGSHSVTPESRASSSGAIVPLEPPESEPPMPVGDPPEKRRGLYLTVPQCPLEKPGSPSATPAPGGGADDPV

Turning to `CCN(CC)C(=O)Cn1cnc2sc(C(=O)N3CCN(c4ccc(Cl)c(Cl)c4)CC3)c(C)c2c1=O` [Compound 6, 2-(6-(4-(3,4-dichlorophenyl)piperazine-1-carbonyl)-5-methyl-4-oxothieno[2,3-d]pyrimidin-3(4H)-yl)-N,N-diethylacetamide], the Kd in experiment [1] came out at 950 nM; in experiment [2], 340 nM; in experiment [3], 9670 nM.

`CCN(CC)C(=O)Cn1cnc2sc(C(=O)N3CCN(c4ccc(Cl)c(C(F)(F)F)c4)CC3)c(C)c2c1=O` [Compound 8, 2-(6-(4-(4-chloro-3-(trifluoromethyl)phenyl)piperazine-1-carbonyl)-5-methyl-4-oxothieno[2,3-d]pyrimidin-3(4H)-yl)-N,N-diethylacetamide]: the Kd in experiment [1] turned out to be 450 nM; in experiment [2], 540 nM.

For the compound `CCN(CC)C(=O)Cn1cnc2sc(C(=O)N3CCN(c4ccc(C(F)(F)F)cc4)CC3)c(C)c2c1=O` [Compound 10, N,N-diethyl-2-(5-methyl-4-oxo-6-(4-(4-(trifluoromethyl)phenyl)piperazine-1-carbonyl)thieno[2,3-d]pyrimidin-3(4H)-yl)acetamide], the Kd is 1220 nM in experiment [1], 300 nM in experiment [2] and > 31300 nM in experiment [3].

As for `Cc1c(C(=O)N2CCN(c3cccc(C(F)(F)F)c3)CC2)sc2ncn(CC(=O)NC(C)(C)C)c(=O)c12` [Compound 12, N-tert-butyl-2-(5-methyl-4-oxo-6-(4-(3-(trifluoromethyl)phenyl)piperazine-1-carbonyl)thieno[2,3-d]pyrimidin-3(4H)-yl)acetamide], the Kd in experiment [1] is 1960 nM; in experiment [2], 1060 nM.

Consider `Cc1c(C(=O)N2CCN(c3ccc(Cl)cc3)CC2)sc2ncn(CC(=O)NC(C)(C)C)c(=O)c12` [Compound 15, N-tert-butyl-2-(6-(4-(4-chlorophenyl)piperazine-1-carbonyl)-5-methyl-4-oxothieno[2,3-d]pyrimidin-3(4H)-yl)acetamide], for which the figures for the Kd in experiment [1] and in experiment [2] were 2370 nM and 870 nM, respectively.

As to `Cc1c(C(=O)N2CCN(c3cccc(Cl)c3)CC2)sc2ncn(CC(=O)NC(C)(C)C)c(=O)c12` [Compound 16, N-tert-butyl-2-(6-(4-(3-chlorophenyl)piperazine-1-carbonyl)-5-methyl-4-oxothieno[2,3-d]pyrimidin-3(4H)-yl)acetamide], the Kd in experiment [1] came out at 1370 nM; in experiment [2] it was 630 nM.

In the case of `Cc1c(C(=O)N2CCN(c3cc(C(F)(F)F)cc(C(F)(F)F)c3)CC2)sc2ncn(CC(=O)NC(C)(C)C)c(=O)c12` [Compound 17, 2-(6-(4-(3,5-bis(trifluoromethyl)phenyl)piperazine-1-carbonyl)-5-methyl-4-oxothieno[2,3-d]pyrimidin-3(4H)-yl)-N-tert-butylacetamide], the results for the Kd in experiment [1] and in experiment [2] were 510 nM and 500 nM, respectively.

As to `Cc1c(C(=O)N2CCN(c3ccccc3)CC2)sc2ncn(CC(=O)NC3CCCCC3)c(=O)c12` [Compound 19, N-cyclohexyl-2-(5-methyl-4-oxo-6-(4-phenylpiperazine-1-carbonyl)thieno[2,3-d]pyrimidin-3(4H)-yl)acetamide], the Kd in experiment [1] was determined as 3600 nM; in experiment [2], 360 nM; in experiment [3], 2380 nM.

For `Cc1c(C(=O)N2CCN(c3ccc(Cl)cc3)CC2)sc2ncn(CC(=O)NC3CCCCC3)c(=O)c12` [Compound 20, 2-(6-(4-(4-chlorophenyl)piperazine-1-carbonyl)-5-methyl-4-oxothieno[2,3-d]pyrimidin-3(4H)-yl)-N-cyclohexylacetamide], the Kd in experiment [1] worked out at 330 nM; in experiment [2], 180 nM; in experiment [3] it was 2100 nM.

Consider `Cc1c(C(=O)N2CCN(c3cccc(F)c3)CC2)sc2ncn(CC(=O)NC3CCCCC3)c(=O)c12` [Compound 21, N-cyclohexyl-2-(6-(4-(3-fluorophenyl)piperazine-1-carbonyl)-5-methyl-4-oxothieno[2,3-d]pyrimidin-3(4H)-yl)acetamide], for which the Kd in experiment [1] was found to be 610 nM; in experiment [2], 190 nM; in experiment [3] it was 5200 nM.

In the case of `Cc1c(C(=O)N2CCN(c3ccc(F)cc3)CC2)sc2ncn(CC(=O)NC3CCCCC3)c(=O)c12` [Compound 22, N-cyclohexyl-2-(6-(4-(4-fluorophenyl)piperazine-1-carbonyl)-5-methyl-4-oxothieno[2,3-d]pyrimidin-3(4H)-yl)acetamide], the values for the Kd in experiment [1] and in experiment [2] were 1360 nM and 430 nM, respectively.

For `Cc1c(C(=O)N2CCN(c3ccccc3F)CC2)sc2ncn(CC(=O)NC3CCCC3)c(=O)c12` [Compound 36, N-cyclopentyl-2-(6-(4-(2-fluorophenyl)piperazine-1-carbonyl)-5-methyl-4-oxothieno[2,3-d]pyrimidin-3(4H)-yl)acetamide], the Kd in experiment [1] turned out to be 1720 nM; in experiment [2], 750 nM.

With `Cc1c(C(=O)N2CCN(c3cccc(Cl)c3)CC2)sc2ncn(CC(=O)N3CCC(F)(F)C3)c(=O)c12` [Compound 78, 6-(4-(3-chlorophenyl)-piperazine-1-carbonyl)-3-(2-(3,3-difluoropyrrolidin-1-yl)-2-oxoethyl)-5-methylthieno[2,3-d]pyrimidin-4(3H)-one], the dissociation constant (Kd) in experiment [1] came to 620 nM; in experiment [2], 400 nM.

For the compound `Cc1c(C(=O)N2CCN(c3ccccc3F)CC2)sc2ncn(CC(=O)N3CCCCC3)c(=O)c12` [Compound 81, 6-(4-(2-fluorophenyl)piperazine-1-carbonyl)-5-methyl-3-(2-oxo-2-(piperidin-1-yl)ethyl)thieno[2,3-d]pyrimidin-4(3H)-one], the results for the Kd in experiment [1] and in experiment [2] were 1680 nM and 720 nM, respectively.

For `Cc1c(C(=O)N2CCN(c3ccccc3F)CC2)sc2ncn(CC(=O)N3CCC(C(F)(F)F)CC3)c(=O)c12` [Compound 89, 6-(4-(2-fluorophenyl)piperazine-1-carbonyl)-5-methyl-3-(2-oxo-2-((4-trifluoromethyl)piperidin-1-yl)ethyl) thieno[2,3-d]pyrimidin-4(3H)-one], the values for the Kd in experiment [1] and in experiment [2] were 630 nM and 420 nM, respectively.

For the compound `CCN(CC(F)(F)F)C(=O)Cn1cnc2sc(C(=O)N3CCN(c4cccc(Cl)c4)CC3)c(C)c2c1=O` [Compound 127, 2-(6-(4-(3-chlorophenyl)piperazine-1-carbonyl)-5-methyl-4-oxothieno[2,3-d]pyrimidin-3(4H)-yl)-N-ethyl-N-(2,2,2-trifluoroethyl)acetamide], the Kd in experiment [1] was 1150 nM; in experiment [2], 630 nM.

For the compound `CCN(CC(F)(F)F)C(=O)Cn1cnc2sc(C(=O)N3CCN(c4ccc(C(F)(F)F)cc4)CC3)c(C)c2c1=O` [Compound 130, N-ethyl-2-(5-methyl-4-oxo-6-(4-(4-(trifluromethyl)phenyl)piperazine-1-carbonyl)thieno[2,3-d]pyrimidin-3(4H)-yl)-N-(2,2,2-trifluoroethyl)acetamide], the Kd stood at 3470 nM in experiment [1] and 390 nM in experiment [2].

For the compound `Cc1c(C(=O)N2CCN(c3ccc(F)c(Cl)c3)CC2)sc2ncn(CC(=O)N3CCCC3)c(=O)c12` [Compound 134, 6-(4-(3-chloro-4-fluoro-phenyl)piperazine-1-carbonyl)-5-methyl-3-(2-oxo-2-(pyrrolidin-1-yl)ethyl)thieno[2,3-d]pyri-midin-4(3H)-one], the Kd amounted to 510 nM in experiment [1] and 18200 nM in experiment [2].

With `Cc1c(C(=O)N2CCN(c3ccc(F)c(Cl)c3)CC2)sc2ncn(CC(=O)N3CC[C@H](F)C3)c(=O)c12` [Compound 137, (S)-6-(4-(3-chloro-4-fluoro-phenyl)piperazine-1-carbonyl)-3-(2-(3-fluoro-pyrrolidin-1-yl)-2-oxoethyl)-5-methyl-thieno[2,3-d]pyrimidin-4(3H)-one], the Kd was 1800 nM in experiment [1] and > 8440 nM in experiment [2].

As to `Cc1c(C(=O)N2CCN(c3ccccc3F)CC2)sc2ncn(CC(=O)Nc3ccc(C(F)(F)F)cc3)c(=O)c12` [Compound 142, 2-(6-(4-(2-fluorophenyl)piperazine-1-carbonyl)-5-methyl-4-oxothieno[2,3-d]pyrimidin-3(4H)-yl)-N-(4-(trifluoromethyl)phenyl)acetamide], the results for the dissociation constant (Kd) in experiment [1] and in experiment [2] were 1160 nM and 700 nM, respectively.
